Tested on: DNA repair system
Assay: γ-h2ax staining
Description: In terms of integration of radiotherapy and chemotherapy, the preferred drug for encapsulation was Doxorubicin. […] Subsequently, we considered that if we could start from the principles of BNCT and selected individual drugs that disrupt the DNA replication process, its efficacy could be further enhanced. Therefore, a poly(ADP-ribose)polymerase (PARP) inhibitor (olaparib) was selected.

For `O=C(c1cc(Cc2n[nH]c(=O)c3ccccc23)ccc1F)N1CCN(C(=O)C2CC2)CC1` [olaparib], the “Interference on the DNA repair system” value was “verified its interference on the DNA repair system”.
